The target in series [1] is Plexin-A1 (human (endogenous in U373MG and U118MG)) (UniProt Q9UIW2). As to the kind of experiment: proximity ligation; proximity ligation assay on tumor tissue sections of U118MG-Luc xenografts; mice treated with MTP-PlexA1 against control mice.
Series [2] has the same target. As to the kind of experiment: proximity ligation; in situ proximity ligation assay (Duo-link) on U373MG cells; MTP-PlexA1 (10^-7 M) added, NRP1/PlexA1 complexes counted against vehicle.
Series [3] has the same target. As to the kind of experiment: co-IP; immunoprecipitation of PlexA1 from U373MG cells stimulated with Sema3A (100 ng/ml) or VEGF (100 ng/ml) with MTP-PlexA1 (10^-7 M); amount of co-precipitated NRP1 and PlexA4 against no peptide.
For the next series, the system named is U373MG cells. As to the kind of experiment: 3D migration assay, U373MG spheroids in plasma clot. Type of series: cell-based, human. To be noted: U373MG, 100 ng/ml, 24 h plasma clot. On the procedure: Supplementary Figure S6: The anti-tumor effect of MTP-PlxA1 was verified in U373MG human GBM line. We found […]
Because PlexA1 is involved in cell migration we also performed a 3D migration assay. U373MG cells were grown as cell aggregates (micro tumor-like spheroids) for 24 h in plasma clot with or without VEGF. […]
migration that formed cell chains invading the 3D substrate as previously described (12). Strikingly, VEGF-induced cell migration was abolished when MTP-PlexA1 at 10–7 M was added to the cultures. […]
of PlexA1, this part of the study exemplified the therapeutic potential of MTP-PlexA1 because this peptide was able to block two major mechanisms of tumor progression.
(Stable Disease) and 62.5% PR (Partial Response).
(§1) (1 picture or pasted object on this page, not shown here)

A further series concerns NRP1/PlexA1 complexes. As to the kind of experiment: in situ proximity ligation assay (Duo-link), NRP1/PlexA1 complexes in U373MG cells. Type of series: cell-based, human. To be noted: specificity control, MTP-Neu at 10–6 M. On the procedure:
“Zip sequence” is the positive control of dimerization and “Empty” is the negative control of this bacterial system. (C, D) SPR assay (Biacore) to quantify MTP-PlexA1 interactions with PLexA1, NRP1 and VEGFR2 TMDs. (E) Proximity ligation assay showing that MTP-PlexA1 (10^−7 M) decreases the number of PLexA1-NRP1 interactions (green dots) in U373MG cells (scale bar = 20 μm).
Additional specificity controls were performed using a mutated version of MTP-PlexA1 (in which 3 glycines of the GxxxGxxxG motif were replaced by 3 valines or MTP-Neu, an anti-breast cancer peptide known to not interact with PlexA1) as described in Supplementary Figure S2. […] Similar results were obtained when cells were exposed to VEGF (39.4% NRP1 and 35.4% PlexA4, Figure 4B).
Supplementary Figure S2: Specificity controls were performed using a mutated version of MTP-PlexA1 […]
LVIVAVLIAYKRK). Such mutations have been previously shown to be sufficient to lose activity of NRP1 antagonist membrane domain targeting peptide (Roth et al., 2008 Mol Biol Cell). We also used MTP-Neu, a transmembrane domain targeting peptide known to […]
M, a concentration previously shown to produce maximal antagonist activity of the peptide. Additionally, we also repeated the in vitro angiogenic assay on matrigel using HUVEC cells. […]
to MTP-PlexA1. These experiments confirmed the specificity of MTP-PlexA1.
as §1

The next series relates to HUVEC cells. As to the kind of experiment: pseudo-tube formation assay, HUVEC on matrigel. Type of series: cell-based, human. Particulars: specificity control. The text has this: We observed PlexA1 positive blood vessels in the tissue array of GBM samples (Figure 5A). […] To address this possibility we first used a transgenic zebra-fish model tg(kdrl:eGFP) highlighting the endothelial cells. This allowed us to assess the angiogenic activities in vivo by analyzing formation of intersegmental vessels (ISVs) after morpholino-based knockdown of the target.
Figure 5 MTP-PlexA1 inhibits developmental and tumor-specific PlexA1 pro-angiogenic role (A) Microphotographs illustrating the expression of PlexA1 in vascular-like structures in human glioma tissues. (Scale bar: 40 μm). (B) Morpholino-based PlexA1 knockdown in Zebrafish tg(kdrl:eGFP) line. Representative images of control, Plexin-A1 mismatch and Pexin-A1 knockdown embryos (plxna1MO) are shown 28 hours post fertilization (28hpf). […] (E) Live-monitoring of VEGF-induced HUVEC cell migration assay using the XCelligence system (transwell assay). (F) Microphotographs illustrating the expression of PlexA1 in blood vessels of the chick chorioallontoic membrane (upper left picture). Microphotographs (middle and lower left pictures) and camera lucida drawing (middle and lower right pictures) showing representative fields of observation after 24 h incubation with VEGF (100 ng/ml, +vehicle) or VEGF + MTP-PlexA1 (10^−7 M). The number of VEGF-induced new blood vessels is shown in the graph. […]

In the next series the test system is NRP1 or PlexA1. To be noted: ref Arpel et al., 2014, Cell Reports; cited from earlier work. From the text:
Such mutations have been previously shown to be sufficient to lose activity of NRP1 antagonist membrane domain targeting peptide (Roth et al., 2008 Mol Biol Cell).

In the next series the test system is PlexA1. As to the kind of experiment: morpholino-based PlexA1 knockdown in zebrafish, intersegmental vessels. Type of series: in vivo. To be noted: tg(kdrl:eGFP) zebrafish, 28 hours post fertilization, vs no injection or mismatch morpholino. The text has this:
We observed PlexA1 positive blood vessels in the tissue array of GBM samples (Figure 5A). […] To address this possibility we first used a transgenic zebra-fish model tg(kdrl:eGFP) highlighting the endothelial cells. This allowed us to assess the angiogenic activities in vivo by analyzing formation of intersegmental vessels (ISVs) after morpholino-based knockdown of the target. […] (Scale bar: 40 μm). […] Representative images of control, Plexin-A1 mismatch and […]1 knockdown embryos (plxna1MO) are shown 28 hours post fertilization (28hpf). […] (E) Live-monitoring of VEGF-induced HUVEC cell migration assay using the […] system (transwell assay). (F) Microphotographs illustrating the expression of PlexA1 in blood vessels of the chick chorioallontoic membrane (upper left picture). Microphotographs (middle and lower left pictures) and camera lucida drawing (middle and lower right pictures) showing representative fields of observation after 24 h incubation with VEGF (100 ng/ml, +vehicle) or […]1 (10^-7 M). The number of VEGF-induced new blood vessels is shown in the graph. For knockdown of PlexA1 in the zebra fish we used morpholino oligonucleotides described by. MO ([NT]) was injected at the one-cell stage. Animals ([…] incubated at 28.5°C for 5 hours before treatment with 1-phenyl-2-thiourea (PTU) to prevent pigment formation. […]

A further series concerns p-Akt/Akt. As to the kind of experiment: western blot of Akt phosphorylation in U373MG cells. It counts as cell-based, human. Particulars: p-Akt/Akt ratio, western blot, Sema3A 100 ng/ml. How it is done: (C) Rac-1 activation assay in resting condition and after Sema3A-induced Rac-1 activation in U373 MG cells. (D) Western blot analysis of phosphorylated Akt, total Akt and tubulin in U373MG cells treated with the vehicle (LDS 72 μM), Sema3A (100 ng/ml) or Sema3A + MTP-PlexA1 (10^−7 M). The lower panel is showing the quantification of the p-Akt/Akt ratio in the different conditions. (E) MTP-PlexA1 decreases VEGFR-2 phosphorylation induced by VEGF (100 ng/ml) in HUVEC cells. […]
in 20 mM sodium acetate (pH 4.5) at a flow rate of 5 μl/ min 10–7 M of MTP-PlexA1 or Vehicle (LDS, 72 µM) during until desired surface densities, measured in response 1 h. Stimulation was done with 100ng/ml Semaphorin 3A units, were reached. […] First antibodies (Rabbit anti-phospho-the elution buffer containing detergent removed non- akt, Rabbit anti-akt, Cell Signaling #4060 and #9272 biotinylated peptides rendering the chip ready for analysis respectively) and mouse anti-tubulin α (Cell Signaling with monomeric biot-MTP-PlexA1. Blank surfaces were #2144) were incubated overnight at 4°C (+ anti-NRP1, used for background corrections. Injections of 30 µl anti-PlexA4 Abcam). […] Images of the immuno-blots cells per well in a 6-well plate and serum starved overnight. were acquired and analyzed thanks to the GENE GNOME Before protein extraction, the cells were treated either with apparatus (Syngene Bio Imaging, UK).
On the technique in general: Immunoblotting shows a protein as a band on a membrane.

“Also recorded” adds a separate entry of the source.

UniProt Q9UIW2, sequence (Q9UIW2 27-1896): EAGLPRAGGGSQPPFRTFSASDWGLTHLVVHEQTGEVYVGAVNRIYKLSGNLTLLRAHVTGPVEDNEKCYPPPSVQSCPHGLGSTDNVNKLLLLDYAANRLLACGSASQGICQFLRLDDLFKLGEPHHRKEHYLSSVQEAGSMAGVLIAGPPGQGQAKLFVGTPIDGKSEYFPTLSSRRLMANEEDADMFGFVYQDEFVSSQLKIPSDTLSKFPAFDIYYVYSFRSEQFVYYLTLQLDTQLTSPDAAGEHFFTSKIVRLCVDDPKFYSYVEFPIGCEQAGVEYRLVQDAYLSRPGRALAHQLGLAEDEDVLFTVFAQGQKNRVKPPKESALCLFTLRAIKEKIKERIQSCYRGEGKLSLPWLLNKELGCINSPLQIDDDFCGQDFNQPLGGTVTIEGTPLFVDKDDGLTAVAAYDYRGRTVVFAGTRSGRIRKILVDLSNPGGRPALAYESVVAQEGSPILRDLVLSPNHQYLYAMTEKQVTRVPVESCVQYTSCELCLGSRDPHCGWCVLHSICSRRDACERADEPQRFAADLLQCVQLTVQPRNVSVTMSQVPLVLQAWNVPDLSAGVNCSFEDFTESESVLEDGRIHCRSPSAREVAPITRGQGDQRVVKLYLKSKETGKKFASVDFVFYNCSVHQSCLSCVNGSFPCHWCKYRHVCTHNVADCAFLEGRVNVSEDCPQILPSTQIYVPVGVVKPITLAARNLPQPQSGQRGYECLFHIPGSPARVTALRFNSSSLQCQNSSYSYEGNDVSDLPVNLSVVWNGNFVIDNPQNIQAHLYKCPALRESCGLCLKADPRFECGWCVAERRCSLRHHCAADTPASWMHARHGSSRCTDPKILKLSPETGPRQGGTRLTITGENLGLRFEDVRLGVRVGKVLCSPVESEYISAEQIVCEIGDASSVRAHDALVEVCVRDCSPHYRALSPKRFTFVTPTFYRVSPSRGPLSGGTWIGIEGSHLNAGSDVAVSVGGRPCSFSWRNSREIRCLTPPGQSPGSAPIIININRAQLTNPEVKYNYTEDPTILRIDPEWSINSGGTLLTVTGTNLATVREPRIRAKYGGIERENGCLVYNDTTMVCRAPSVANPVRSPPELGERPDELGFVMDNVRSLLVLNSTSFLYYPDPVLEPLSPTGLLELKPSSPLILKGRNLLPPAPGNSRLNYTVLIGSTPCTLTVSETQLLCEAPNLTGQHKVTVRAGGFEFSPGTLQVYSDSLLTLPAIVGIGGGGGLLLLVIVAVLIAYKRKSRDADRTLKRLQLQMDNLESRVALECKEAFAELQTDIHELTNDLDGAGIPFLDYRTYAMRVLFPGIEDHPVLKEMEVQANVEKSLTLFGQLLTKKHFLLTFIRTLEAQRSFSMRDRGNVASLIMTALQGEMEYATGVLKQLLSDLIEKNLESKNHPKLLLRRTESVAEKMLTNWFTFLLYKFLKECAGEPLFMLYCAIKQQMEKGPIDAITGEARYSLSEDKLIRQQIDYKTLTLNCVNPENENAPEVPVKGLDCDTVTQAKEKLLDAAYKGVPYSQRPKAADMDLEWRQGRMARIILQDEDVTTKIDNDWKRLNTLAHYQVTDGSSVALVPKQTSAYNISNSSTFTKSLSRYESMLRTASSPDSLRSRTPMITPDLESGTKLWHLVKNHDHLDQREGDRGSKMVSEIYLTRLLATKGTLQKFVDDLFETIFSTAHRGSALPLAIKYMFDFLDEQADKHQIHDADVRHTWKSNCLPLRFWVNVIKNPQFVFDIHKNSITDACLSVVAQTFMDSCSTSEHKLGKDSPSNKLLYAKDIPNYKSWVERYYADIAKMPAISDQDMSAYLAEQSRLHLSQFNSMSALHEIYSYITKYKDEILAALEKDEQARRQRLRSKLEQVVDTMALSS

For the molecule “MTP-PlexA1, synthetic transmembrane peptide mimicking the TMD of PlexA1”, the percent change of PlexA1-NRP1 interactions (proximity ligation, tumor sections) in series [1] is -48.5%. In [2], the percent reduction of NRP1/PlexA1 complexes (proximity ligation, U373MG) turned out to be 29.4%. In series [3], the percent reduction of NRP1 co-immunoprecipitated with PlexA1 (VEGF) amounted to 39.4% and the percent reduction of PlexA4 co-immunoprecipitated with PlexA1 (VEGF) turned out to be 35.4%.

On to VEGF [reference compound], for which, in the series with U373MG cells, the “tumor cell migration induced by VEGF” value is “induced tumor cell”.

Consider “TLPAIVVIGGVGVLLLLVIVAVLIAYKRK [MTP-PlexA1mut]”, for which the “disruption of NRP1/PlexA1 dimers” value in the series on NRP1/PlexA1 complexes is given as “not by mutated MTP-PlexA1mut peptide”. Also, the “effect on number of tube-like structures (HUVEC on matrigel)” value with HUVEC cells was “not able to decrease tube like structure; also recorded: not able to reduce the number of tube-like structures”.

With “TFIIATVEGVLLFLILVVVVGILIKRR [MTP-Neu, reference compound]”, the “disruption of NRP1/PlexA1 dimers” value with NRP1/PlexA1 complexes is listed as “unrelated MTP-Neu peptide”. Besides, in the series on NRP1 or PlexA1, the “interaction with NRP1 or PlexA1” value is recorded as “not interact with NRP1 or PlexA1”.

In the case of “5′-GCCACATATCTGCACTGGTCCTTGA-3′ (all phosphorodiamidate morpholino (PMO)) [morpholino sequence against PlexA1, morpholino oligonucleotide for knockdown of PlexA1 in the zebra fish]”, the “abnormal angiogenic sprouts in intersegmental vessels” value in the series with PlexA1 is “significant number of abnormal angiogenic sprouts”.

B1: Sema3A: PlexA1 ligand (protein, UniProt Q14563 21-771, looked up)
Semaphorin-3A: NYQNGKNNVPRLKLSYKEMLESNNVITFNGLANSSSYHTFLLDEERSRLYVGAKDHIFSFDLVNIKDFQKIVWPVSYTRRDECKWAGKDILKECANFIKVLKAYNQTHLYACGTGAFHPICTYIEIGHHPEDNIFKLENSHFENGRGKSPYDPKLLTASLLIDGELYSGTAADFMGRDFAIFRTLGHHHPIRTEQHDSRWLNDPKFISAHLISESDNPEDDKVYFFFRENAIDGEHSGKATHARIGQICKNDFGGHRSLVNKWTTFLKARLICSVPGPNGIDTHFDELQDVFLMNFKDPKNPVVYGVFTTSSNIFKGSAVCMYSMSDVRRVFLGPYAHRDGPNYQWVPYQGRVPYPRPGTCPSKTFGGFDSTKDLPDDVITFARSHPAMYNPVFPMNNRPIVIKTDVNYQFTQIVVDRVDAEDGQYDVMFIGTDVGTVLKVVSIPKETWYDLEEVLLEEMTVFREPTAISAMELSTKQQQLYIGSTAGVAQLPLHRCDIYGKACAECCLARDPYCAWDGSACSRYFPTAKRRTRRQDIRNGDPLTHCSDLHHDNHHGHSPEERIIYGVENSSTFLECSPKSQRALVYWQFQRRNEERKEEIRVDDHIIRTDQGLLLRSLQQKDSGNYLCHAVEHGFIQTLLKVTLEVIDTEHLEELLHKDDDGDGSKTKEMSNSMTPSQKVWYRDFMQLINHPNLNTMDEFCEQVWKRDRKQRRQRPGHTPGNSNKWKHLQENKKGRNRRTHEFERAPRSV
On to B1, for which, in the series on p-Akt/Akt, the “change of Akt phosphorylation” value is recorded as −33%.

These data come from PMC5295395, “Inhibition of PlexA1-mediated brain tumor growth and tumor-associated angiogenesis using a transmembrane domain targeting peptide” (Oncotarget, 2016).
